In ChEMBL document CHEMBL1146758, “Design, synthesis and structure-activity relationship studies of novel indazole analogues as DNA gyrase inhibitors with Gram-positive antibacterial activity” (Bioorg Med Chem Lett, 2004):
≈ marks a conversion by molar mass, not a printed value.

Legend:
DNA gyrase [1] = target: DNA gyrase (Escherichia coli, UniProt P0AES4+P0AES6); assay: (§1) Inhibitory activity against Escherichia coli DNA gyrase; type: protein-complex assay
Staphylococcus aureus [2] = assay: Inhibitory activity against Staphylococcus aureus FDA 209P; type: functional
Enterococcus faecalis [3] = assay: Inhibitory activity against Enterococcus faecalis KU 1777; type: functional
Staphylococcus aureus [4] = assay: Inhibitory activity against Staphylococcus aureus KMP9; type: functional
Enterococcus faecalis [5] = assay: Inhibitory activity against Enterococcus faecalis ATCC 29212; type: functional
DNA topoisomerase II [6] = target: T1, DNA topoisomerase II (Homo sapiens, UniProt P11388+Q02880); assay: Human DNA topoisomerase II relaxation activity was determined; type: protein assay
Nucleic Acid [7] = assay: Escherichia coli DNA topoisomerase IV decatenation activity was determined; type: nucleic-acid assay
Nucleic Acid [8] = assay: Inhibitory activity against Escherichia coli DNA topoisomerase IV; type: nucleic-acid assay
DNA topoisomerase II [9] = target: T1, DNA topoisomerase II; assay: Inhibitory activity against human DNA topoisomerase II; type: protein assay
DNA gyrase [10] = target: DNA gyrase (Escherichia coli, UniProt P0AES6+P0AES4); assay: as §1; type: protein-complex assay
[11] = Staphylococcus aureus, read-out: MIC
[12] = Enterococcus faecalis, read-out: MIC
[13] = Enterococcus faecalis, ATCC 29212, read-out: MIC

Structure (SMILES) | IC50 (DNA gyrase [1]) [µM] | MIC (Staphylococcus aureus [2]; [11]) [µg/mL] | MIC (Enterococcus faecalis [3]; [12]) [µg/mL] | MIC (Staphylococcus aureus [4]; [11]) [µg/mL] | MIC (Enterococcus faecalis [5]; [13]) [µg/mL] | MIC (Staphylococcus aureus [2]) [µg/mL] | MIC (Enterococcus faecalis [3]) [µg/mL] | MIC (Staphylococcus aureus [4]) [µg/mL] | MIC (Enterococcus faecalis [5]) [µg/mL] | IC50 (DNA topoisomerase II [6]) [µg/mL] | IC50 (Nucleic Acid [7]) [µg/mL] | IC50 (DNA gyrase [10]) [µM] | IC50 (Nucleic Acid [8]) [µg/mL] | IC50 (DNA topoisomerase II [9]) [µg/mL]
COC(=O)C1CCCC(Nc2[nH]nc3cccc(OCc4ccc(Cl)cc4)c23)C1 (configuration not stated) | 38.7 | 32 (≈ 77.3 µM) | 32 (≈ 77.3 µM) | 32 (≈ 77.3 µM) | 64 (≈ 155 µM) |  |  |  |  |  |  |  |  | 
Cn1cc(/C=C/c2cc(C3CCNCC3)nn2-c2cccc(Cl)c2)c2cc(Cl)ccc21 | 31 | 1 (≈ 2.22 µM) | 2 (≈ 4.43 µM) | 1 (≈ 2.22 µM) | 2 (≈ 4.43 µM) |  |  |  |  | > 400 | 8 (≈ 17.7 µM) |  |  | 
CC(C)(C)c1ccc(COc2cccc3[nH]nc(CN4CCNCC4)c23)cc1 | 169 | 16 (≈ 42.3 µM) | 16 (≈ 42.3 µM) | 32 (≈ 84.5 µM) | 32 (≈ 84.5 µM) |  |  |  |  |  |  |  |  | 
COC(=O)C1CCCC(Nc2[nH]nc3cccc(OCc4cnc(Cl)c(Cl)c4)c23)C1 (configuration not stated) | 142 | > 128 | > 128 | > 128 | > 128 |  |  |  |  |  |  |  |  | 
CO[C@@H]1[C@@H](OC(N)=O)[C@@H](O)[C@H](Oc2ccc3c(O)c(NC(=O)c4ccc(O)c(CC=C(C)C)c4)c(=O)oc3c2C)OC1(C)C [NOVOBIOCIN] |  | 0.25 (≈ 0.408 µM) | 2 (≈ 3.26 µM) | 0.25 (≈ 0.408 µM) | 2 (≈ 3.26 µM) |  |  |  |  |  |  |  | 25 (≈ 40.8 µM) | > 400
CC(C)(C)c1ccc(COc2cccc3[nH]nc(CN[C@@H]4CN[C@H](CO)C4)c23)cc1 | 157 | 64 (≈ 157 µM) | 64 (≈ 157 µM) | 64 (≈ 157 µM) | 64 (≈ 157 µM) |  |  |  |  |  |  |  |  | 
COC(=O)C1CCCN(Cc2n[nH]c3cccc(OCc4ccc(C(C)(C)C)cc4)c23)C1 (configuration not stated) | 36.7 | 32 (≈ 73.5 µM) | 32 (≈ 73.5 µM) | 64 (≈ 147 µM) | 64 (≈ 147 µM) |  |  |  |  |  |  |  |  | 
CC(C)(C)c1ccc(COc2cccc3[nH]nc(NCCCC(=O)O)c23)cc1 | 83.9 | > 128 | > 128 | > 128 | > 128 |  |  |  |  |  |  |  |  | 
COC(=O)C1CCCC(Nc2[nH]nc3cccc(OCc4ccccc4)c23)C1 (configuration not stated) | 21.1 | 64 (≈ 169 µM) | 64 (≈ 169 µM) | 64 (≈ 169 µM) | 64 (≈ 169 µM) |  |  |  |  |  |  |  |  | 
CCOC(=O)CCCNc1[nH]nc2cccc(OCc3ccc(C(C)(C)C)cc3)c12 | 39.1 | 16 (≈ 39.1 µM) | 16 (≈ 39.1 µM) | 16 (≈ 39.1 µM) | 16 (≈ 39.1 µM) |  |  |  |  |  |  |  |  | 
c1ccc(COc2ccc(-c3cc(C4CCNCC4)[nH]n3)cc2)cc1 | 384 | 64 (≈ 192 µM) | 64 (≈ 192 µM) | 64 (≈ 192 µM) | 64 (≈ 192 µM) |  |  |  |  |  |  |  | 128 (≈ 384 µM) | 200 (≈ 600 µM)
CC(C)(C)c1ccc(COc2cccc3[nH]nc(CN[C@H]4CN[C@H](CO)C4)c23)cc1 | 78.3 | 32 (≈ 78.3 µM) | 32 (≈ 78.3 µM) | 64 (≈ 157 µM) | 64 (≈ 157 µM) |  |  |  |  |  |  |  |  | 
COC(=O)C1CCN(Cc2n[nH]c3cccc(OCc4ccc(C(C)(C)C)cc4)c23)CC1 | 36.7 | 32 (≈ 73.5 µM) | 32 (≈ 73.5 µM) | 32 (≈ 73.5 µM) | 32 (≈ 73.5 µM) |  |  |  |  |  |  |  |  | 
Clc1cccc(-n2nc(C3CCNCC3)cc2/C=C/c2c[nH]c3ccc(Cl)cc23)c1 | 32 | 1 (≈ 2.29 µM) | 2 (≈ 4.57 µM) | 1 (≈ 2.29 µM) | 2 (≈ 4.57 µM) |  |  |  |  | > 400 | 8 (≈ 18.3 µM) |  |  | 
COC(=O)C1CCCC(NCc2cc(/C=C/c3cn(C)c4ccc(Cl)cc34)[nH]n2)C1 (stereo in doubt; 7ba) |  |  |  |  |  | 8 (≈ 18.7 µM) |  | 8 (≈ 18.7 µM) | 32 (≈ 75 µM) |  |  | 2.34 |  | 
COC(=O)C1CCCC(NCc2cc(/C=C\c3ccc(Cl)c(Cl)c3)[nH]n2)C1 (configuration not stated) | 39.2 | 4 (≈ 9.8 µM) | 16 (≈ 39.2 µM) | 8 (≈ 19.6 µM) | 16 (≈ 39.2 µM) |  |  |  |  |  |  |  |  | 
COC(=O)C1CCCC(NCc2cc(/C=C/c3ccc(Cl)c(Cl)c3)[nH]n2)C1 (configuration not stated) | 39.2 | 4 (≈ 9.8 µM) | 16 (≈ 39.2 µM) | 8 (≈ 19.6 µM) | 16 (≈ 39.2 µM) |  |  |  |  |  |  |  |  | 
COC(=O)C1CCCC(Nc2[nH]nc3cccc(OCc4ccc(F)c(F)c4)c23)C1 (configuration not stated) | 38.5 | 128 (≈ 308 µM) | 128 (≈ 308 µM) | 128 (≈ 308 µM) | 128 (≈ 308 µM) |  |  |  |  |  |  |  |  | 
CNCc1n[nH]c2cccc(OCc3ccc(C(C)(C)C)cc3)c12 | 198 | 32 (≈ 98.9 µM) | 16 (≈ 49.5 µM) | 64 (≈ 198 µM) | 32 (≈ 98.9 µM) |  |  |  |  |  |  |  |  | 
COC(=O)[C@@H]1C[C@H](NCc2n[nH]c3cccc(OCc4ccc(C(C)(C)C)cc4)c23)CN1 | 18.3 | 64 (≈ 147 µM) | 64 (≈ 147 µM) | 64 (≈ 147 µM) | 64 (≈ 147 µM) |  |  |  |  |  |  |  |  | 

Second part, led by results:

IC50 (DNA gyrase [1]) [µM] | MIC (Staphylococcus aureus [2]; [11]) [µg/mL] | MIC (Enterococcus faecalis [3]; [12]) [µg/mL] | MIC (Staphylococcus aureus [4]; [11]) [µg/mL] | MIC (Enterococcus faecalis [5]; [13]) [µg/mL] | MIC (Staphylococcus aureus [2]) [µg/mL] | MIC (Enterococcus faecalis [3]) [µg/mL] | MIC (Staphylococcus aureus [4]) [µg/mL] | MIC (Enterococcus faecalis [5]) [µg/mL] | IC50 (DNA topoisomerase II [6]) [µg/mL] | IC50 (Nucleic Acid [7]) [µg/mL] | IC50 (DNA gyrase [10]) [µM] | Structure (SMILES) | IC50 (Nucleic Acid [8]) [µg/mL] | IC50 (DNA topoisomerase II [9]) [µg/mL]
1.17 |  |  |  |  | 8 (≈ 18.7 µM) | 32 (≈ 75 µM) | 16 (≈ 37.5 µM) | 64 (≈ 150 µM) |  |  |  | COC(=O)C1CCCC(NCc2cc(/C=C\c3cn(C)c4ccc(Cl)cc34)[nH]n2)C1 (stereo in doubt; 8bb) |  | 
9.18 | 4 (≈ 9.18 µM) | 4 (≈ 9.18 µM) | 4 (≈ 9.18 µM) | 8 (≈ 18.4 µM) |  |  |  |  |  |  |  | COC(=O)C1CCCC(Nc2[nH]nc3cccc(OCc4ccc(C(C)(C)C)cc4)c23)C1 (configuration not stated) |  | 
8.9 | > 128 | > 128 | > 128 | > 128 |  |  |  |  |  |  |  | COC(=O)C1CN(Cc2n[nH]c3cccc(OCc4ccc(C(C)(C)C)cc4)c23)CCC1=O (configuration not stated) |  | 
8.9 | 4 (≈ 8.9 µM) | 4 (≈ 8.9 µM) | 4 (≈ 8.9 µM) | 8 (≈ 17.8 µM) |  |  |  |  | > 400 | > 128 |  | COC(=O)C1CCCC(NCc2n[nH]c3cccc(OCc4ccc(C(C)(C)C)cc4)c23)C1 (configuration not stated) |  | 
2.16 | 4 (≈ 8.65 µM) | 4 (≈ 8.65 µM) | 4 (≈ 8.65 µM) | 4 (≈ 8.65 µM) |  |  |  |  | > 400 | > 128 |  | COC(=O)C1CCCC(NCc2n[nH]c3cccc(OCc4ccc(Cl)c(Cl)c4)c23)C1 (configuration not stated) |  | 
17.8 | 16 (≈ 35.6 µM) | 16 (≈ 35.6 µM) | 32 (≈ 71.2 µM) | 16 (≈ 35.6 µM) |  |  |  |  |  |  |  | CCOC(=O)C1CCCN(Cc2n[nH]c3cccc(OCc4ccc(C(C)(C)C)cc4)c23)C1 (configuration not stated) |  | 
18.3 | 64 (≈ 147 µM) | 64 (≈ 147 µM) | 128 (≈ 293 µM) | 128 (≈ 293 µM) |  |  |  |  |  |  |  | COC(=O)[C@@H]1C[C@@H](NCc2n[nH]c3cccc(OCc4ccc(C(C)(C)C)cc4)c23)CN1 |  | 
2.34 | 4 (≈ 9.37 µM) |  | 8 (≈ 18.7 µM) |  |  | 8 (≈ 18.7 µM) |  | 8 (≈ 18.7 µM) |  |  |  | COC(=O)C1CCCC(NCc2cc(/C=C\c3cn(C)c4ccc(Cl)cc34)[nH]n2)C1 (stereo in doubt; 8ba) |  | 
0.536 | > 128 | > 128 | > 128 | > 128 |  |  |  |  |  |  |  | Cc1cc(=O)oc2cc(CCc3n[nH]c4cccc(OCc5ccc(C(C)(C)C)cc5)c34)ccc12 | > 128 | > 400
2.34 | 16 (≈ 37.5 µM) | 32 (≈ 75 µM) | 16 (≈ 37.5 µM) | 64 (≈ 150 µM) |  |  |  |  |  |  |  | COC(=O)C1CCCC(NCc2cc(/C=C/c3cn(C)c4ccc(Cl)cc34)[nH]n2)C1 (stereo in doubt; 7bb) |  | 
2.23 | 4 (≈ 8.92 µM) | 4 (≈ 8.92 µM) | 4 (≈ 8.92 µM) | 4 (≈ 8.92 µM) |  |  |  |  |  |  |  | COC(=O)C1CCCC(Nc2[nH]nc3cccc(OCc4ccc(Cl)c(Cl)c4)c23)C1 (configuration not stated) |  | 
